Source: ChEMBL document CHEMBL1201862, “PubChem BioAssay data set” (2004)
Calls of active or inactive are those of the source. Cut-off read from the data, not from the text of the source: actives have a measured IC50 and inactives only a lower limit.

Molecular target: Envelope glycoprotein gp160 (Human immunodeficiency virus 1, UniProt Q6QLK5)
Experiment: cell-free HIV fusion peptide-binding blockers – biochemical, uHTS, fluorescence dequenching, […] (AID 1986)

Sequence of Envelope glycoprotein gp160 (Q6QLK5 whole entry, the tested form may be a part): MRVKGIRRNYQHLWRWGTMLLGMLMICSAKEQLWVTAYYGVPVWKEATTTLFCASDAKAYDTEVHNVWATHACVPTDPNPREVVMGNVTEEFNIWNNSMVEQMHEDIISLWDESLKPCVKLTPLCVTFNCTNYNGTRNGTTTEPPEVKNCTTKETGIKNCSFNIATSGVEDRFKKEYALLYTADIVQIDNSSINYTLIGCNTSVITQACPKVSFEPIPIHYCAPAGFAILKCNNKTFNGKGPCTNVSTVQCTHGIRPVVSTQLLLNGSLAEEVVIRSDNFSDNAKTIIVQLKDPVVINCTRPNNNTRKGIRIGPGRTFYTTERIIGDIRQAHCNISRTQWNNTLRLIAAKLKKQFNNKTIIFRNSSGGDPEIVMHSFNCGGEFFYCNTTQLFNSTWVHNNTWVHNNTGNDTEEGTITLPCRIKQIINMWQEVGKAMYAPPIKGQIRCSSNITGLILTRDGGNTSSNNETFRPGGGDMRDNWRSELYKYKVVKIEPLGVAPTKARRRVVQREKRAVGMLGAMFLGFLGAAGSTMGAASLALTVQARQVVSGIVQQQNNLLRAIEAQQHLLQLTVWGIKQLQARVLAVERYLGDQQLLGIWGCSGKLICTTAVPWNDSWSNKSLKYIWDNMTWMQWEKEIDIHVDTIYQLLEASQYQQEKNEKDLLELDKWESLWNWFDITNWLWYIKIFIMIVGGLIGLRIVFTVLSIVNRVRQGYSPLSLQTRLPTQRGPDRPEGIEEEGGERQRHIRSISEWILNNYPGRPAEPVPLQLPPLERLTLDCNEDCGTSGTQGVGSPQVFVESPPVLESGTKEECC

Row | Structure (SMILES) | IC50
1 | O=C(O)c1cccc(-n2cccc2/C=C2/NC(=O)N(c3ccc(Cl)cc3)C2=O)c1 | 16.9 µM (active)
2 | COc1cc(/C=C2\C(=N)N3N=C(S(C)(=O)=O)SC3=NC2=O)cc(OC)c1OCCOc1cccc(C)c1 | 13.8 µM (active)
3 | N#Cc1c(O)nc(SCC(=O)Nc2ccc(OC(F)(F)Cl)cc2)nc1-c1ccccc1 | 15.6 µM (active)
